Laboratory results published in patent US10676474B2, “1,6-naphthyridine derivatives as CDK4/6 inhibitor” (CSTONE PHARMACEUTICALS, priority 2016, dated 2020).
≈ marks a conversion by molar mass, not a printed value.

Tests used:
[1] = tested on: colorectal cancer HCT-116 model; experiment: In vivo pharmacodynamic study (3), HCT-116 model, tumor volume; design: species or system BALB/c nude mice; conditions: 60 mg/kg(D0-D11), 120 mg/kg (D12-D20), PO, QD × 21
Experimental: (§1) The in vivo pharmacodynamic experiments were performed on the BALB/c nude mice implanted subcutaneously with the colorectal cancer HCT-116 model.
(§2) BALB/c nude mice, female, 6-8 weeks, weighing approximately 18-22 g, were placed in a single ventilated cage (3-5 mice per cage) under a special pathogen free environment. All of the cages, beddings and water were disinfected before use. All of the animals were permitted free access to a standard certified commercial laboratory diet. A total of 48 mice purchased from Shanghai Lingchang Biotechnology Co., Ltd. were used for the study. Each mouse was implanted subcutaneously with 0.2 mL of 5×10^6 HCT-116 cells in the right back for tumor growth. The dosing in groups initiated when the average tumor volume reached about 132 mm^3. The tumor volume was measured twice a week using a two-dimensional caliper, and the volume was measured in mm^3, calculated by the following the formula: V=0.5 a×b^2, wherein, a and b were the long and short diameters of the tumor, respectively. The antitumor efficacy was determined by dividing the average increase in the tumor volume of the animals treated with the compound by the average increase in the tumor volume of the untreated animals.

[2] = In vivo pharmacodynamic study (3), HCT-116 model, animal weight; design: species or system BALB/c nude mice; conditions: 60 mg/kg(D0-D11), 120 mg/kg (D12-D20), PO
Experimental: as §1, §2

[3] = Metabolic stability in human liver microsomes; assay type: in vitro ADME; conditions: 0.5 mg/mL protein, read-out: Human T1/2
Experimental: (§3) This assay is used to test the metabolic stability of tested substances in rats, mice and human liver microsomes.
(§4) 1) The tested compound with concentration of 1 μM was co-incubated with liver microsomes with a protein concentration of 0.5 mg/mL under a reducing coenzyme II regeneration system in a 37° C. water bath.
(§5) 2) The positive controls include: testosterone (3A4 substrate), propafenene (2D6 substrate) and diclofenac (2C9 substrate). The incubation condition of the positive controls was consistent with that of the compound.
(§6) 3) The reaction time points were: 0, 5, 10, 20, 30 and 60 minutes, and the reaction is terminated at the corresponding time point using a termination solution containing an internal standard. The compounds were also incubated with microsomes for 60 minutes without a reducing coenzyme II regeneration system and served as a negative control.
(§7) 4) Each time point was a single point (n=1).
(§8) 5) The sample was determined by LC/MS/MS, and the compound concentration was shown as the ratio of the peak area of the compound to the peak area of the internal standard (non-standard).
(§9) 6) In the project report summary, the half-life and the clearance rate would be calculated.

[4] = target: T1, CDK6/cyclin D1 (Homo sapiens, UniProt Q00534); experiment: Enzyme activity assay CDK6/cyclin D1 (Lance Ultra); assay type: biochemical; conditions: 0.8 nM CDK6/cyclin D1, 250 μM ATP, 180 minutes
T1 construct: purchased Life technology
T1 sequence (Q00534 whole entry): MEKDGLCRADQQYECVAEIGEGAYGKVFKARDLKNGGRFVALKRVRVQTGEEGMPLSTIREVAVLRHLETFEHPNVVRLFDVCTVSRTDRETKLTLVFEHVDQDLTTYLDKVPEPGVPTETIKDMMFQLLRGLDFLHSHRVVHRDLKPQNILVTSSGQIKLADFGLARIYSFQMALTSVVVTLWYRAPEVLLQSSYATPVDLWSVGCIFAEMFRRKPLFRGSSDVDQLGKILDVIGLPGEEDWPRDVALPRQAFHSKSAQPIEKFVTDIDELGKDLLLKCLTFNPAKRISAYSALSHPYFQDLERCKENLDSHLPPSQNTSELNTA
T1 sequence (P24385 whole entry partner): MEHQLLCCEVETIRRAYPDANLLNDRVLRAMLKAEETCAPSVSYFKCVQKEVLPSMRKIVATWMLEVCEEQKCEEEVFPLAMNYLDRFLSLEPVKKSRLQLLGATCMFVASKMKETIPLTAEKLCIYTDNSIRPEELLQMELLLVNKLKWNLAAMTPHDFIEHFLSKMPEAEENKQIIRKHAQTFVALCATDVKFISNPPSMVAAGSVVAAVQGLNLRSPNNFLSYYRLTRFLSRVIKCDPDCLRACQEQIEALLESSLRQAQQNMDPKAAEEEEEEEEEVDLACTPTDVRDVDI
Experimental: CDK4/cyclin D1, CDK6/cyclin D1 (Life technology). ULight labeled polypeptide substrates ULight-4E-BP1 and ULight-MBP (PerkinElmer). Europium labeled anti-myelin basic protein antibody and europium labeled rabbit-derived antibody (PerkinElmer). Envision Multi-label Analyzer (PerkinElmer) for signal detection.
They were respectively dissolved in an enzyme buffer solution comprising: 50 mM hydroxyethylpiperazine ethanesulfuric acid solution at pH 7.5, 1 mM ethylenediaminetetraacetic acid, 10 mM magnesium chloride, 0.01% Brij-35, 2 mM dithiothreitol. After the reaction was started, the OptiPlate 384-well plate was sealed with a top heat seal film TopSeal-A and incubated at room temperature for 180 minutes.
The termination buffer solution of the enzymatic reaction was prepared, and EDTA was dissolved in a 1-fold diluted assay buffer solution. The reaction was terminated and incubated at room temperature for 5 minutes. 5 μL of the assay mixed solution (prepared with europium labeled anti-myelin basic protein antibody and europium labeled rabbit-derived antibody, respectively) was added to the reactions of CDK4/cyclin D1 and CDK6/cyclin D1, respectively, and incubated at room temperature for 60 minutes. The reaction signal was detected by Envision according to the time-resolved fluorescence resonance energy transfer theory.

[5] = Metabolic stability in mouse liver microsomes; assay type: in vitro ADME; conditions: 0.5 mg/mL protein, read-out: Mice T1/2
Experimental: as §3, §4, §5, §6, §7, §8, §9

[6] = Thermodynamic solubility test (shake-flask, HPLC); assay type: physicochemical; conditions: phosphate buffer, aqueous buffer, thermodynamic from solid; pH = 7.4, Table 3-2; read-out: Thermodynamic solubility
Experimental: The thermodynamic solubility of the compounds was determined by the shake-flask method and HPLC. The solubility of the compounds is an important property that affects drug screening of compounds and the absorption of compounds in animals and humans. A saturated solution of the compound was first given and quantitatively tested by HPLC to obtain the solubility of the compound.
50 mM phosphate buffer solution, pH 7.4.
Not less than 2 mg of the sample powder was weighed into a vial of Whatman miniuniprep. If test of the thermodynamic solubility of a sample in multiple buffer solutions is required, an individual vial is required for each test.
450 μL of the buffer solution (pH 7.4) was added to each Whatman miniuniprep vial.
After the addition of the buffer solution, the Whatman miniuniprep cap with a filter was mounted and pressed above the liquid level so that the filter could contact with the buffer solution during shaking.
And the observation of the solution was recorded.
It was shaked at 550 RPM for 24 hours at room temperature (about 22 to 25° C.).
The Whatman Miniunipreps filter cap was pressed to the bottom to give the filtrate of the sample solubility solution. All sample vials should be filtered before and after insoluble substances and their leakage.
The buffer was diluted 50 folds to give a sample diluent.
Three UV standards from low to high concentration were injected into HPLC, followed by the injection of the dilutions and supernatants of the tested compounds. The tested sample was injected twice.

CC(=O)c1c(C)c2cnc(Nc3cnc(N4CCN(CCN(C)C)CC4)cn3)cc2n(C2CCCC2)c1=O [Example 34]
Gross tumor volume, 0 day ([1]; 0 day): 132 mm^3
Gross tumor volume, 7 days ([1]; 7 days): 416 mm^3
Gross tumor volume, 14 days ([1]; 14 days): 695 mm^3
Gross tumor volume, 21 days ([1]; 21 days): 963 mm^3
Changes in animal weight, 0 day ([2]; QD × 21, 0 day): 0%
Changes in animal weight, 7 days ([2]; QD × 21, 7 days): 2.5%
Changes in animal weight, 14 days ([2]; QD × 21, 14 days): −2.3%
Changes in animal weight, 21 days ([2]; QD × 21, 21 days): −5.9%
half-life at 1 μM [3]: 43.1 min
IC50 [4]: 3.65 nM
half-life at 1 μM [5]: 40.2 min
solubility thermodynamic at 24 h [6]: 6.42 mM (≈ 3330 µg/mL)
